Type in all cases: physicochemical
Data set [1] in a line: Flowability of potassium clavulanate crystalline forms. The conditions noted are these: crystalline form comparison, Example 5.
The nature of data set [2]: Particle size distribution of potassium clavulanate crystalline forms. To be noted: crystalline form comparison, Example 5.
Data set [3] in a line: Stability / shelf-life compared with prior art crystalline forms. The conditions noted are these: compared to rosette, needle and starburst forms; generally lower polymer level.

Results on four molecules are retold here after patent publication US6414142B1, “Process for preparing potassium clavulanate” (SmithKline Beecham Corporation, priority 1996, dated 2002).

With `O=C(O)[C@H]1/C(=C/CO)O[C@@H]2CC(=O)N21` [Needles/rods, potassium clavulanate], the Flowabiiity in data set [1] is 3.4. Also, in data set [2], the “Particle Size Distribution” value was 34.1-67.3 microns.

`O=C(O)[C@H]1/C(=C/CO)O[C@@H]2CC(=O)N21` [Rosette-like Starbursts, potassium clavulanate]: the Flowabiiity in data set [1] stood at 4.8. The “Particle Size Distribution” value in data set [2] is recorded as 35.1- 97.9 microns. Also, the stability and shelf-life result in data set [3] is listed as “greater stability”.

As for `O=C(O)[C@H]1/C(=C/CO)O[C@@H]2CC(=O)N21` [Rosettes, potassium clavulanate], the Flowabiiity in data set [1] worked out at 6.1. The “Particle Size Distribution” value in data set [2] is 34.8- 66.4 microns.

As for `O=C(O)[C@H]1/C(=C/CO)O[C@@H]2CC(=O)N21` [Starbursts/Broken Starbursts, potassium clavulanate], the “Particle Size Distribution” value in data set [2] is listed as 33.5-70.5 microns.
